Experiments:
SKH-1 hairless mouse = experiment: UVB-irradiated wrinkle-induced SKH-1 hairless mouse animal experiment; format: in vivo
Source text: The anti-wrinkle improvement and moisturizing effects were confirmed through animal experiments for the enzyme-treated extract of Zizania latifolia Turcz. prepared in the above Example 1. For the experiment, biochemical analysis equipment (Roche Ltd, Basel, Switzerland), glass teflon homogenizer (Chang shin scientific Co., Korea), microplate reader (Bio-TEK, USA), protein quantification equipment (Chemi-Doc; BIORAD, USA), a centrifuge (Hanil FLETA5, Korea), a water bath (Thermo minder taitec, Japan), and a deep freezer (Sanyo, Japan) were used. In addition, glass Teflon homogenizer (Daihan Scientific Group, Korea), UV-spectrophotometer (Shimadzu UV-1201, Japan), high-speed centrifuge (Hanil HMR-1610V, Korea), medical freezer (Sanyo, Japan)), a microplate reader (Bio-TEK), and protein quantification equipment (Chemi-Doc; BIORAD) were used. […]
First, the body weight of each animal was measured to observe the change in body weight. […]

RAW264.7 cells = experiment: NO assay in lipopolysaccharide-induced macrophage cell line RAW264.7; format: cell-based; settings: concentration series of single substance; versus LPS
Procedure: The production of NO was confirmed through the NO assay, and the specific process was as follows: The macrophage cell line RAW264.7 was distributed from the Korea Cell Line Bank (KCLB, Seoul, Korea), and using DMEM medium (Welgene, Gyeongsan, Korea) to which 10% FBS and 1% antibiotics (penicillin/streptomycin) were added, the cells were subcultured 2 to 3 times in an incubator at 37° C. in the presence of 5% CO2 and used.
RAW264.7 cells were dispensed into a 96-well plate at […] and pre-cultured in a 5% CO2 incubator for 20 to 24 hours, and each extract sample was treated and cultured for 24 hours. […] After the reaction was completed, optical density (O.D) was measured with an ELISA reader at a wavelength of 540 nm. At this time, the measured O.D was expressed as a percentage (%) compared with the O.D value in the cells to which lipopolysaccharide was added.
Second, NO assay was performed to measure the anti-inflammatory effect of the Zizania latifolia Turcz. extract and tricin using RAW264.7. […] After the reaction was completed, optical density (O.D) was measured with an ELISA reader at a wavelength of 540 nm. At this time, the measured O.D was expressed as a percentage (%) compared with the O.D value in the cells to which lipopolysaccharide was added. […]

[1] = test system: CCD-986sk fibroblast cells, human dermal fibroblasts (HDF); experiment: procollagen type I C-peptide EIA, collagen synthesis in fibroblasts; format: cell-based; settings: concentration series of single substance
Procedure: The anti-wrinkle effect of the Zizania latifolia Turcz. extract prepared in Preliminary Experiments 2 to 4 was confirmed. First, human-derived CCD-986sk fibroblast cells were distributed from Korea Culture Tissue Collection (KCTC, Korea), and human dermal fibroblasts (HDF) were distributed from Seorin Bio. In addition, CCD-986sk fibroblasts were subcultured 2 to 3 times in an incubator at 37° C. in the presence of 5% CO2 using IMDM medium (ATCC, ATCC 30-2005, USA) supplemented with 10% FBS and 1% antibiotics (penicillin/streptomycin) and used. […]
Second, procollagen and MMP families (MMP-1, 2, 3, 9, 13) are factors that are discharged to the outside of the cell culture solution, and the cell culture solution reacted with the sample was collected and used. […] (standard sample), procollagen type I C-peptide EIA kit manufactured by Takara was used, the quantification curve was measured using PIP to calculate the amount of collagen synthesis for each sample. In addition, by measuring the inhibitory ability of metalloproteinase-1 (MMP-1), MMP-2, MMP-3, MMP-9, and […], which are factors affecting wrinkles, Zizania latifolia Turcz. enzyme treatment (standard sample) and tricin were evaluated for wrinkle improvement effect. The inhibitory ability of MMP-1, 2, 3, 9, 13 was measured using a product manufactured by Abcam.

B16-F0 cells = experiment: inhibition of melanin production in melanin cell line B16-F0 (α-MSH/IBMX stimulated); format: cell-based, mouse; settings: concentration series of single substance
Procedure: The whitening effect of the Zizania latifolia Turcz. extract prepared in the above Preliminary Experiments 2 to 4 was confirmed. First, mouse-derived melanin cell line B16-F0 cells were distributed from the American Type Culture Collection (ATCC, USA), and using DMEM medium (ATCC, ATCC 30-2002, USA) to which 10% FBS and 1% antibiotics (penicillin/streptomycin) were added, the cells were subcultured 2 to 3 times in an incubator at 37° C. in the presence of 5% CO2 and used.
Second, the ability of the Zizania latifolia Turcz. extract and tricin to inhibit melanin production in the mouse-derived melanin cell line B16-F0 was measured. B16-F0 cells were dispensed into a 6-well plate at 5×10^5 cells/well and pre-cultured in a 5% CO2 incubator for 20 to 24 hours, and then each extract sample was treated and cultured for 48 hours. […]
The melanoma cells adhered to the surface of the 6-well plate were removed from the cultured cells, dispensed into a 1.5 mL tube, and centrifuged at 13,000 rpm for 10 minutes using a centrifuge maintained at 4° C. […] After reacting for 1 hour in an oven at 60° C., 100 μL was dispensed to each well in a 96-well plate and O.D was measured with an ELISA reader (405 nm). […]

RBL-2H3 cells = experiment: β-hexosaminidase release in IgE/antigen-stimulated RBL-2H3 cells; format: cell-based, rat; settings: concentration series of single substance; versus DNP-HSA
Procedure: The anti-allergic efficacy of the Zizania latifolia Turcz. extract prepared in the above Preliminary Experiments 2 to 4 was confirmed. First, RBL-2H3 cells, a rat basophilic leukemia cell line, were purchased from Korea Cell Line Bank (KCLB, Seoul, Korea). RBL-2H3 cells were cultured in MEM (Gibco BRL, NY, USA) medium containing 10% FBS and 1% penicillin/streptomycin in an incubator at 37° C. and 5% CO2.
Second, the inhibitory effect of the extract on the release of β-hexosaminidase was confirmed in RBL-2H3 cells. RBL-2H3 cells were dispensed into a 24-well plate at 2×10^5 cells per well and stimulated with anti-DNP IgE (450 ng/mL) overnight at 37° C. […] Then, the reaction was stopped by immersing in an ice water bath for 10 minutes. 25 μL of the supernatant was transferred to a 96-well plate and 25 μL of 0.1 M citrate buffer (pH 4.5) in which the substrate (1 mM p-nitrophenyl-nacetyl-β-D-glucosaminide) is dissolved, was added and reacted at 37° C. for 1 hour. Thereafter, 200 μL of a stop solution (0.1 M Na2CO3/NaHCO3, pH 10.0) was added to stop the reaction, and the absorbance was measured at 405 nm using a microplate reader.

Q: `COc1cc(-c2cc(=O)c3c(O)cc(O)cc3o2)cc(OC)c1O` [tricin, Tricin] was tested. Which “moisture of the skin surface” value (SKH-1 hairless mouse; T group, 0.3 mg/kg oral, 14 weeks, UVB, FIG. 16) did it give?
A: Its value is “maintained”.

Q: What about the “SILFLO microscopic observation of wrinkles versus group C” value (SKH-1 hairless mouse; group T, tricin 2 mg/kg as printed, until the 8th week of UVB irradiation) of the same molecule?
A: Its value is “wrinkles were relatively less formed compared to group C”.

Q: And the “NO generation according to the concentration (FIG. 7)” value (RAW264.7 cells)?
A: The value was “decreased in a concentration-dependent manner”.

Q: And the “collagen generation according to the concentration (FIG. 11)” value [1]?
A: Its value is “increased in a concentration-dependent manner”.

Q: What about the “melanin generation according to the concentration (FIG. 9)” value (B16-F0 cells) of the same molecule?
A: Its value is “decreased in a concentration-dependent manner”.

Q: What about the “β-hexosaminidase release rate according to the concentration (FIG. 13)” value (RBL-2H3 cells) of the same molecule?
A: Its value is “decreased in a concentration-dependent manner”.
